Among the data in ChEMBL document CHEMBL1150976, “The selectivity of protein kinase inhibitors: a further update” (Biochem J, 2007) are Activity values, retold here.

Experiment [1] concerns the target Dual specificity tyrosine-phosphorylation-regulated kinase 1A (Homo sapiens) (UniProt Q13627). The experiment in a line: Percentage DYRK1A activity remaining in the presence of 25uM inhibitor.
For experiment [2], the target named is T1, Mitogen-activated protein kinase 15 (Homo sapiens) (UniProt Q8TD08).
T1 sequence (whole entry): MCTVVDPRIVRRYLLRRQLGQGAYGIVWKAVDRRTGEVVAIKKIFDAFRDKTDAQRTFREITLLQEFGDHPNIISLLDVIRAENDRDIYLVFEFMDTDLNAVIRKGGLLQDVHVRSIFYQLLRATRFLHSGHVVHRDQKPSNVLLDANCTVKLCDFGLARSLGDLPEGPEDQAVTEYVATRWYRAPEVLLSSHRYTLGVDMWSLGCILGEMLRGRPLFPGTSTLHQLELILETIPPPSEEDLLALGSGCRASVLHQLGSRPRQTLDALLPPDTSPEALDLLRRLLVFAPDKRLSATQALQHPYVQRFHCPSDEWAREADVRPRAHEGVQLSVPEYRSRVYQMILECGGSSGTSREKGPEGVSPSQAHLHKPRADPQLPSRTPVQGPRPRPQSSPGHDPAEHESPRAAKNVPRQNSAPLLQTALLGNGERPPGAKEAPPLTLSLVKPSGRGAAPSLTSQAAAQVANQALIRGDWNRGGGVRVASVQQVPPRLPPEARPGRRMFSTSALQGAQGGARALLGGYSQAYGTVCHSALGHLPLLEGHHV
Nature of the experiment: Percentage ERK8 activity remaining in the presence of 25uM inhibitor.

The target of experiment [3] is Homeodomain-interacting protein kinase 3 (Homo sapiens) (UniProt Q9H422). Nature of the experiment: Percentage HIPK3 activity remaining in the presence of 25uM inhibitor.
Sequence of Homeodomain-interacting protein kinase 3 (Homo sapiens) (Q9H422 whole entry, looked up): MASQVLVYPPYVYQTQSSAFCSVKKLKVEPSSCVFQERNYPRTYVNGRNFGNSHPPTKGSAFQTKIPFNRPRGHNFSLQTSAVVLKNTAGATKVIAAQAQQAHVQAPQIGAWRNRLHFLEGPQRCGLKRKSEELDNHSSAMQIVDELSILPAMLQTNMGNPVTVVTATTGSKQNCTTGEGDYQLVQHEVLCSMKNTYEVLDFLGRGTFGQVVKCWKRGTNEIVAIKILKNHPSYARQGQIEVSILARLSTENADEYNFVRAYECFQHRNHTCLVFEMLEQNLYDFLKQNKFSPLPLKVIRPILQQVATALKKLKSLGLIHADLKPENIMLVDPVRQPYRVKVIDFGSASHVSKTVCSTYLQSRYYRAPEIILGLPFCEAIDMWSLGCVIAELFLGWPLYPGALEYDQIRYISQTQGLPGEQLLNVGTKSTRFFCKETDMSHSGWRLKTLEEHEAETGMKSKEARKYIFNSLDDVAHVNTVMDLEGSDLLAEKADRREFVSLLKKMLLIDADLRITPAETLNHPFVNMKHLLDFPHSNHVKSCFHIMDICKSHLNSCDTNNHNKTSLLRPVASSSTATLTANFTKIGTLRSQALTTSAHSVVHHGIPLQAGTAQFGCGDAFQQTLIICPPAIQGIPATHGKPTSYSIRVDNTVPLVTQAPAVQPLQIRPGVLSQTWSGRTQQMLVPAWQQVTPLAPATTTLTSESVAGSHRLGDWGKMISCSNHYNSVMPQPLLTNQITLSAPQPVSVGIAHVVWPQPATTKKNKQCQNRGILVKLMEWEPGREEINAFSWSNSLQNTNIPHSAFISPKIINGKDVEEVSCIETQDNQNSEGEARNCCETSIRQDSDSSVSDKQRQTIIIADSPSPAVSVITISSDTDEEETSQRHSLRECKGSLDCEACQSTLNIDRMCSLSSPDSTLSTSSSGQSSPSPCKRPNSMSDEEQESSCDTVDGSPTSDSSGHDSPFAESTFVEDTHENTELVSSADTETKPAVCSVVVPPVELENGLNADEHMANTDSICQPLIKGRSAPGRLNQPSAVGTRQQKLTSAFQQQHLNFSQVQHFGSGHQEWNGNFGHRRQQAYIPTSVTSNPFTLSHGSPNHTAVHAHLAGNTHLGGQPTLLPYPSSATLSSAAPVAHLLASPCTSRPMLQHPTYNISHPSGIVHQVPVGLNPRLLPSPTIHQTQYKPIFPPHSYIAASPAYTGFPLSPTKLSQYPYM
Experiment [4] addresses MAP/microtubule affinity-regulating kinase 3 (Homo sapiens) (UniProt P27448). Nature of the experiment: Percentage MARK3 activity remaining in the presence of 25uM inhibitor.
The target of experiment [5] is Serine/threonine-protein kinase pim-3 (Homo sapiens, UniProt Q86V86). The experiment in a line: Percentage PIM3 activity remaining in the presence of 25uM inhibitor. The settings on record: filed as antagonist.
For experiment [6], the target named is Calcium/calmodulin-dependent protein kinase kinase 2 (Homo sapiens) (UniProt Q96RR4). Nature of the experiment: Percentage CaMKKbeta activity remaining in the presence of 25uM inhibitor.
Sequence of Calcium/calmodulin-dependent protein kinase kinase 2 (Homo sapiens) (Q96RR4 2-588 limits assumed): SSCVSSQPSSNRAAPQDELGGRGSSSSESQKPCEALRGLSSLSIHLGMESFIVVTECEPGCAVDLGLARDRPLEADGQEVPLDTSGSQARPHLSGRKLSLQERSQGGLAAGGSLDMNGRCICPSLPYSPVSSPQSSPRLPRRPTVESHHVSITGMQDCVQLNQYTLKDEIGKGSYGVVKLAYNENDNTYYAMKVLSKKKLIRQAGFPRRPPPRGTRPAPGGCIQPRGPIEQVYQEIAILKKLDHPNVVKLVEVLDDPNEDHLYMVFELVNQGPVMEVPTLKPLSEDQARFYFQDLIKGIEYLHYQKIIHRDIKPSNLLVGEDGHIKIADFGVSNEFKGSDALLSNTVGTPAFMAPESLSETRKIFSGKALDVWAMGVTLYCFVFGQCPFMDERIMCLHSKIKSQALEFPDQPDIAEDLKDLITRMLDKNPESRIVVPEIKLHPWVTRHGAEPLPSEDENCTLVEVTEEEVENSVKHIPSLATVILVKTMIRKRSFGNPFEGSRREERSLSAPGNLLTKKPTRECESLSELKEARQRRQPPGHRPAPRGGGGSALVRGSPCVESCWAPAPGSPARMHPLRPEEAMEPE
Experiment [7] deals with T2, Dual specificity tyrosine-phosphorylation-regulated kinase 2 (Homo sapiens) (UniProt Q92630).
T2 sequence (whole entry): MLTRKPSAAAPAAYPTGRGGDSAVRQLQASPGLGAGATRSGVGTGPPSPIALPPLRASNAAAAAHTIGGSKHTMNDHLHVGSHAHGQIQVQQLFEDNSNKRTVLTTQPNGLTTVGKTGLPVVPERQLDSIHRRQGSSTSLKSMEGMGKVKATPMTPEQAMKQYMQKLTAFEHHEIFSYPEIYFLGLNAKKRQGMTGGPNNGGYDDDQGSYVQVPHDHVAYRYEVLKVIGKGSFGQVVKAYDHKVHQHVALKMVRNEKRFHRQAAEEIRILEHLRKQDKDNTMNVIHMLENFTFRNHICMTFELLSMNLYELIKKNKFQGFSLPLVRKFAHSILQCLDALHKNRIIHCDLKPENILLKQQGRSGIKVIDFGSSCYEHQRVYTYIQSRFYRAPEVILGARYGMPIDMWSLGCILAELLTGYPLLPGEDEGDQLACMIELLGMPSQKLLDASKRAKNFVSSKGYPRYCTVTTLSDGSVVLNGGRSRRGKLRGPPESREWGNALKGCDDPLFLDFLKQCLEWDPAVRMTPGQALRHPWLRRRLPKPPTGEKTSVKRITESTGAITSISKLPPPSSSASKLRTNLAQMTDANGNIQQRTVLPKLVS
Nature of the experiment: Percentage DYRK2 activity remaining in the presence of 25uM inhibitor.

Experiment [8] has as its target T3, Serine/threonine-protein kinase Nek2 (Homo sapiens) (UniProt P51955).
T3 sequence (whole entry): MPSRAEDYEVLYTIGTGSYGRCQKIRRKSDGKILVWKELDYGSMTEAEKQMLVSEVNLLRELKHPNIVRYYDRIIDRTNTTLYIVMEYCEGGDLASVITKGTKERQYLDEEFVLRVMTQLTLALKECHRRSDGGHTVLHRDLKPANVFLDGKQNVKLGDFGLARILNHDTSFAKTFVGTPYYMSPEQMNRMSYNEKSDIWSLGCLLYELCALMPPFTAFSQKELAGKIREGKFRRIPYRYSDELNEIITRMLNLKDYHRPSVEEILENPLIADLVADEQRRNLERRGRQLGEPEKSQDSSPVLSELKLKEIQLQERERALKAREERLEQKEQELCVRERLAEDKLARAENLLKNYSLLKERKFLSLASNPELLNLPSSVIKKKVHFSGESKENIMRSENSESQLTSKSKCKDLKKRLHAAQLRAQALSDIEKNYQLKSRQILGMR
The experiment in a line: Percentage NEK2a activity remaining in the presence of 25uM inhibitor.

Experiment [9] deals with T4, Mitogen-activated protein kinase 12 (Homo sapiens) (UniProt P53778).
T4 sequence (whole entry): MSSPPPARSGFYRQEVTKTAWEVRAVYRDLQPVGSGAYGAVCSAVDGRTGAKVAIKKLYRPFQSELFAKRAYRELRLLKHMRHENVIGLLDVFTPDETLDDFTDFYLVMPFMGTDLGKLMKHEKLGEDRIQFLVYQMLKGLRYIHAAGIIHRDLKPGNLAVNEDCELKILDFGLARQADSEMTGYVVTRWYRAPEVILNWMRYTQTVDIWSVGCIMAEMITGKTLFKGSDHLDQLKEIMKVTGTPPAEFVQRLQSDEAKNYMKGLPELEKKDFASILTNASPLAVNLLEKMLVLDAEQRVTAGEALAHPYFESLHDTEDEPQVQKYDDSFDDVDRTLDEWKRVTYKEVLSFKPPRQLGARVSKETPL
The experiment in a line: Percentage p38-gamma activity remaining in the presence of 25uM inhibitor.

Experiment [10] addresses T5, MAP kinase-activated protein kinase 5 (Homo sapiens) (UniProt Q8IW41).
T5 sequence (whole entry): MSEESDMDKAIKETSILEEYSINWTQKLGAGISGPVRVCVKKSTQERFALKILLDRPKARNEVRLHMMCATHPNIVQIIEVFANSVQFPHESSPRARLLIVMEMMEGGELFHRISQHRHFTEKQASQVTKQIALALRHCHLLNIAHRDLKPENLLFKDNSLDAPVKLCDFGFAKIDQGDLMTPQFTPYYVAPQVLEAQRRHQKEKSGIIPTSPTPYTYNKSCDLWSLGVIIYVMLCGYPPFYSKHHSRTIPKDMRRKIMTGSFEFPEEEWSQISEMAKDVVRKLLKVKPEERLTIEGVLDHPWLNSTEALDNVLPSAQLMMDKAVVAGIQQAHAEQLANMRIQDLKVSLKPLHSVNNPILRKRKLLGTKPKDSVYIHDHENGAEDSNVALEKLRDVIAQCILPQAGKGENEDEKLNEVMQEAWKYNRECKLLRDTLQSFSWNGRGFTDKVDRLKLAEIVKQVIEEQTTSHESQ
The experiment in a line: Percentage PRAK activity remaining in the presence of 25uM inhibitor.

Sequence of MAP/microtubule affinity-regulating kinase 3 (Homo sapiens) (P27448 whole entry, looked up): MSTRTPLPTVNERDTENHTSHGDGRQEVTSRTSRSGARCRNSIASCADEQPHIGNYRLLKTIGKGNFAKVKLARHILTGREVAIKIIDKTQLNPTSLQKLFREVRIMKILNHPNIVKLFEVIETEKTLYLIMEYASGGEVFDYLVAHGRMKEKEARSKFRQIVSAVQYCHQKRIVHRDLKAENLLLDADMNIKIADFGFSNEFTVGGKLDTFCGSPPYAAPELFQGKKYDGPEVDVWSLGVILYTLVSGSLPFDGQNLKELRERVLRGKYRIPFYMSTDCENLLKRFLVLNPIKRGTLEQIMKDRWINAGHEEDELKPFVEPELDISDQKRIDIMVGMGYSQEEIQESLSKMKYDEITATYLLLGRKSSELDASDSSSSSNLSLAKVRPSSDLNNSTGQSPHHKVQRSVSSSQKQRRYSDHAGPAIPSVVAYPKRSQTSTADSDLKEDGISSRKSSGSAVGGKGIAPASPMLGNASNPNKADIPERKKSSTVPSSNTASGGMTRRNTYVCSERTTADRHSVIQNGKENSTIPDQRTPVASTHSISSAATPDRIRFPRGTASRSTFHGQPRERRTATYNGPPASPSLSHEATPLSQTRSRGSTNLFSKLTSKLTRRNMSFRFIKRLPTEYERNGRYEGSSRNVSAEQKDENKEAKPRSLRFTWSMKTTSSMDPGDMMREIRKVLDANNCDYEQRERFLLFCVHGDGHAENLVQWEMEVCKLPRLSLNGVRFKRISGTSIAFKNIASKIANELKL

For the compound `COc1cc(OC)c(/C=C2/C(=O)Nc3ccccc32)c(OC)c1`, the Activity was 73% in [1]; 68% in [2]; 95% in [3]; 88% in [4]; 41% in experiment [5]; 86% in experiment [6]. For the same compound, the Activity turned out to be 99% in experiment [7], 75% in experiment [8], 93% in [9] and 82% in [10].

For the compound `NCCNS(=O)(=O)c1ccc(Cl)c2ccncc12`, the Activity in experiment [1] (filed as antagonist) was 39%; in experiment [2] (filed as antagonist), 29%; in experiment [3], 86%; in experiment [4] it was 78%; in experiment [5] it was 28%; in [6] it was 86%. In addition, the Activity in experiment [7] amounted to 76%; in experiment [8] it was 85%; in [9], 102%; in [10] it was 81%.
